Measured values: patent US7998940B2, “Aptamers to von Willebrand factor and their use as thrombotic disease therapeutics” (Archemix Corp., priority 2004, dated 2011)
pKd: −log10 of the molar value. Oligonucleotides are written 5' to 3', each unit as a sugar letter and its base; * is a phosphorothioate linkage, no mark a phosphodiester; rarer units and linkages stand in square brackets, end groups in braces. Plain capitals give the bases only. [invdT] = inverted (3'-3') thymidine; d = 2'-deoxy (DNA); m = 2'-O-methyl

Tested on: full length human vWF (SEQ ID NO 7)
Experiment: dot blot KD determination and extent of binding, full length human vWF;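 note: dot blot binding of aptamers to full length human vWF across a protein titration, incubated 30 minutes at room temperature in 1x DPBS with BSA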
Conditions: for % binding @ 100 nM vWF / pKd: Phase 1 modification; for % binding @ 100 nM vWF: extent of aptamer binding at 100 nM full length human vWF; for pKd: full length human vWF, 8 point protein titration, read-out: KD
Experimental: Based on this initial screen, KDs were determined for 3 of the vWF dependent binding sequences using the dot blot assay. […] A 12 point protein titration was used in the dot blot assay (300 nM, 100 nM, 30 nM, 10 nM, 3 nM, 1 nM, 300 pM, 100 pM, 30 pM, 10 pM, 3 pM, 0 pM) in 1×DPBS plus 0.1 mg/mL BSA at room temperature for 30 minutes.
An 8 point protein titration was used in the dot blot binding assay (100n M, 30 nM, 10 nM, 3 nM, 1 nM, 300 pM, 100 pM, 0 pM)) in 1× Dulbecco's PBS containing 0.1 BSA (final volume of 50 uL) for 30 minutes at room temperature.

Substance	% binding @ 100 nM vWF [%]	pKd (dot blot)	binding to human vWF (in words, dot blot)
ARC1115: ARC1029 with PEG spacer replaced with a short oligonucleotide sequence, dTdTdC (DNA GGCGTGCAGTGCCTTCGGCCGTGCGGTGCCTCCGTCACGCC; unmodified DNA)	36	8.70	shown to bind
ARC1194: ARC1172 with one residue replaced by 2'-O methyl residue (DNA mGdGdCdGdTdGdCdAdGdTdGdCdCdTdTdCdGdGdCdCdGdTdGdCdGdGdTdGdCdCdTdCdCdGdTdCdAdCdGdCdC[invdT]; aptamer)	46	8.52	–
ARC1195: ARC1172 with one residue replaced by 2'-O methyl residue (DNA dGmGdCdGdTdGdCdAdGdTdGdCdCdTdTdCdGdGdCdCdGdTdGdCdGdGdTdGdCdCdTdCdCdGdTdCdAdCdGdCdC[invdT]; aptamer)	55	9.00	–
ARC1196: ARC1172 with one residue replaced by 2'-O methyl residue (DNA dGdGmCdGdTdGdCdAdGdTdGdCdCdTdTdCdGdGdCdCdGdTdGdCdGdGdTdGdCdCdTdCdCdGdTdCdAdCdGdCdC[invdT]; aptamer)	46	8.70	–
ARC1197: ARC1172 with one residue replaced by 2'-O methyl residue (DNA dGdGdCmGdTdGdCdAdGdTdGdCdCdTdTdCdGdGdCdCdGdTdGdCdGdGdTdGdCdCdTdCdCdGdTdCdAdCdGdCdC[invdT]; aptamer)	46	8.70	–
ARC1198: ARC1172 with one residue replaced by 2'-O methyl residue (DNA dGdGdCdGmUdGdCdAdGdTdGdCdCdTdTdCdGdGdCdCdGdTdGdCdGdGdTdGdCdCdTdCdCdGdTdCdAdCdGdCdC[invdT]; aptamer)	50	9.05	–
ARC1199: ARC1172 with one residue replaced by 2'-O methyl residue (DNA dGdGdCdGdTmGdCdAdGdTdGdCdCdTdTdCdGdGdCdCdGdTdGdCdGdGdTdGdCdCdTdCdCdGdTdCdAdCdGdCdC[invdT]; aptamer)	28	7.72	–
ARC1200: ARC1172 with one residue replaced by 2'-O methyl residue (DNA dGdGdCdGdTdGmCdAdGdTdGdCdCdTdTdCdGdGdCdCdGdTdGdCdGdGdTdGdCdCdTdCdCdGdTdCdAdCdGdCdC[invdT]; aptamer)	25	8.30	–
ARC1201: ARC1172 with one residue replaced by 2'-O methyl residue (DNA dGdGdCdGdTdGdCmAdGdTdGdCdCdTdTdCdGdGdCdCdGdTdGdCdGdGdTdGdCdCdTdCdCdGdTdCdAdCdGdCdC[invdT]; aptamer)	6	9.05	–
ARC1202: ARC1172 with one residue replaced by 2'-O methyl residue (DNA dGdGdCdGdTdGdCdAmGdTdGdCdCdTdTdCdGdGdCdCdGdTdGdCdGdGdTdGdCdCdTdCdCdGdTdCdAdCdGdCdC[invdT]; aptamer)	56	9.40	–
ARC1203: ARC1172 with one residue replaced by 2'-O methyl residue (DNA dGdGdCdGdTdGdCdAdGmUdGdCdCdTdTdCdGdGdCdCdGdTdGdCdGdGdTdGdCdCdTdCdCdGdTdCdAdCdGdCdC[invdT]; aptamer)	40	8.52	–
ARC1204: ARC1172 with one residue replaced by 2'-O methyl residue (DNA dGdGdCdGdTdGdCdAdGdTmGdCdCdTdTdCdGdGdCdCdGdTdGdCdGdGdTdGdCdCdTdCdCdGdTdCdAdCdGdCdC[invdT]; aptamer)	45	8.70	–
ARC1205: ARC1172 with one residue replaced by 2'-O methyl residue (DNA dGdGdCdGdTdGdCdAdGdTdGmCdCdTdTdCdGdGdCdCdGdTdGdCdGdGdTdGdCdCdTdCdCdGdTdCdAdCdGdCdC[invdT]; aptamer)	50	9.00	–
